Data from ChEMBL document CHEMBL1133981, “Synthesis of a reported calpain inhibitor isolated from Streptomyces griseus” (Bioorg Med Chem Lett, 2001).
Active and inactive are the calls of the source. The calls are words filed in the database; no cut-off is given here.

Columns and labels:
[1] = molecular target: T1, Calpain-1 catalytic subunit (Homo sapiens, UniProt P07384); test: Compound was tested for its inhibitory activity against calpain […]
T1 sequence (P07384 whole entry): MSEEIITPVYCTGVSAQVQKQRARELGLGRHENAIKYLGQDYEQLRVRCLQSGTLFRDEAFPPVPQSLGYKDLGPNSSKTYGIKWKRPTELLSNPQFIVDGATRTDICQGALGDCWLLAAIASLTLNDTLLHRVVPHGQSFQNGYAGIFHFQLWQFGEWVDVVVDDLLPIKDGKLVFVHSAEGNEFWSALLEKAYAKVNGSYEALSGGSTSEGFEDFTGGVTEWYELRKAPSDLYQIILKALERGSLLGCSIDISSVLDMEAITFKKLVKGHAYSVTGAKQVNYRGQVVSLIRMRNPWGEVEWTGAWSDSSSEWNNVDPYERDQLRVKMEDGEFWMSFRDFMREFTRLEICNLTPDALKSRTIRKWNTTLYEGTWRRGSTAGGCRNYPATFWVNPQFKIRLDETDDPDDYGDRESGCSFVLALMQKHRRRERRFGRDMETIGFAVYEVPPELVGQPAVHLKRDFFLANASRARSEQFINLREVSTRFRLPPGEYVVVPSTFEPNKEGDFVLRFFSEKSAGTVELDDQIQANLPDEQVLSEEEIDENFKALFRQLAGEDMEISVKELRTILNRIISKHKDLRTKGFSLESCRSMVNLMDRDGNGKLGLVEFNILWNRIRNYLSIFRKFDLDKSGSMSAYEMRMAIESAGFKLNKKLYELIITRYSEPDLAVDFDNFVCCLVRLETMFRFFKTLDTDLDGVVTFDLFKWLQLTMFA

[2] = molecular target: T2, Calpain small subunit 1 (Sus scrofa) (UniProt P04574); test: Compound was tested for its inhibitory activity against porcine erythrocyte Calpain 1 up to a concentration of 1 mM; NA=Not active
T2 sequence (whole entry): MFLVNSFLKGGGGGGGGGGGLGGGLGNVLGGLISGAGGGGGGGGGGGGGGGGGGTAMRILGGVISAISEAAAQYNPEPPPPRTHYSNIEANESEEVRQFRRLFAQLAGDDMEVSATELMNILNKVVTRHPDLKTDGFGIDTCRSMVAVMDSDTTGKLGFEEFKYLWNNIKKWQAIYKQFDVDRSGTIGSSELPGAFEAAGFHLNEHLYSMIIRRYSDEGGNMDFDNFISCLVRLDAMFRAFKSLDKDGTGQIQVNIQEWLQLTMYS

[3] = molecular target: T1, Calpain-1 catalytic subunit; test: Compound was tested for its inhibitory activity against calpain […] (SC488)

IC50 [1] [nM] | Activity [2] | IC50 [3] [nM] | Compound
1200 | – | – | CC(C)c1ncc(Cc2ccccc2)[nH]c1=O
– | inactive | – | CN1C(=O)[C@H](Cc2ccccc2)N(C)C(=O)[C@H]1Cc1ccccc1
– | inactive | – | CN1C(=O)[C@H](Cc2ccccc2)N(C)C(=O)[C@@H]1Cc1ccccc1
– | inactive | 800 | CN1C(=O)[C@H](Cc2ccc(O)cc2)N(C)C(=O)[C@@H]1Cc1ccc(O)cc1
